According to ChEMBL document CHEMBL3580611, “Design, Synthesis, and Pharmacological Evaluation of Fused β-Homophenylalanine Derivatives as Potent DPP-4 Inhibitors” (ACS Med Chem Lett, 2015):

What was measured:
[1] = Elimination half life in male Sprague-Dawley rat at 10 mg/kg, po; assay type: ADME, organism-based; conditions: in vivo, read-out: beta t1/2 (converted)
Mus musculus [2] = experiment: Anti-diabetic effect in ICR mouse assessed as plasma glucose lowering effect at 10 mg/kg, po treated 1 hr before 2.5 g/kg, po glucose load by Oral glucose tolerance test relative to control
[3] = Elimination half life in rat liver microsomes; assay type: ADME; conditions: read-out: beta t1/2
[4] = Cmax in male Sprague-Dawley rat at 5 mg/kg, iv; assay type: ADME, organism-based; design: dose 5 mg/kg, route intravenous; conditions: in vivo
[5] = Plasma clearance in male Sprague-Dawley rat at 5 mg/kg, iv; assay type: ADME, organism-based
[6] = Cmax in male Sprague-Dawley rat at 10 mg/kg, po; assay type: ADME, organism-based; design: dose 10 mg/kg, route oral; conditions: in vivo
[7] = Oral bioavailability in male Sprague-Dawley rat at 10 mg/kg; assay type: ADME, organism-based; conditions: in vivo
[8] = AUC (0 to infinity) in male Sprague-Dawley rat at 10 mg/kg, po; assay type: ADME, organism-based; design: dose 10 mg/kg, route oral, time infinity; conditions: in vivo
[9] = Volume of distribution at steady state in male Sprague-Dawley rat at 5 mg/kg, iv; assay type: ADME, organism-based; conditions: in vivo, read-out: Vdss
Rattus norvegicus = experiment: Volume of distribution at steady state in male Sprague-Dawley rat at 10 mg/kg, po; assay type: ADME, organism-based; conditions: in vivo
Dipeptidyl peptidase 9 = Dipeptidyl peptidase 9 (Homo sapiens, UniProt Q86TI2); experiment: Inhibition of human recombinant DPP9 using H-Gly-Pro-AMC substrate after 10 mins by fluorescence assay
Sequence of Dipeptidyl peptidase 9 (Q86TI2 whole entry): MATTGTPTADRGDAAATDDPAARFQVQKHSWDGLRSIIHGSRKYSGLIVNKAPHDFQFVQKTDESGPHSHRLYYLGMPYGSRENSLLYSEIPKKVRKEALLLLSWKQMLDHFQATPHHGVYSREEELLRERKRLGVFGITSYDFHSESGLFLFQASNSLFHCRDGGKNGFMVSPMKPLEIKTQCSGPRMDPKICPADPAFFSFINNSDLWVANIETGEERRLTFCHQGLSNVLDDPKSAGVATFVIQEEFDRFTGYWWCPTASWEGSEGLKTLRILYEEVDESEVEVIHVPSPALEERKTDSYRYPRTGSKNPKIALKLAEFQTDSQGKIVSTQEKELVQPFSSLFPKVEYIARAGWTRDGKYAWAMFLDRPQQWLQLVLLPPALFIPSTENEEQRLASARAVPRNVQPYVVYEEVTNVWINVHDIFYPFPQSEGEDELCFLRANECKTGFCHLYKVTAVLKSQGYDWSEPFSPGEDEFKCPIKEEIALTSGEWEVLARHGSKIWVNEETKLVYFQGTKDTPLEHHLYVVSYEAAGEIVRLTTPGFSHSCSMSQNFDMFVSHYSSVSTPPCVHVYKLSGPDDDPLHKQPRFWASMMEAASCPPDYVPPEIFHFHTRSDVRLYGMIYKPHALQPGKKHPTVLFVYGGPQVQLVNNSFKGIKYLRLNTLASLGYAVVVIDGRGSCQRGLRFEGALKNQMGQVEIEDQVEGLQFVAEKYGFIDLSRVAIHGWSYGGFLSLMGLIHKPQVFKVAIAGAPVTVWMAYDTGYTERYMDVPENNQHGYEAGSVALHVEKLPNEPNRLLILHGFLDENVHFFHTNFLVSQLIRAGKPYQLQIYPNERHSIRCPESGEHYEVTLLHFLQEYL

[10] = biological target: Voltage-gated inwardly rectifying potassium channel KCNH2 (Homo sapiens, UniProt Q12809); experiment: Inhibition of human ERG channel
Sequence of Voltage-gated inwardly rectifying potassium channel KCNH2 (Q12809 whole entry): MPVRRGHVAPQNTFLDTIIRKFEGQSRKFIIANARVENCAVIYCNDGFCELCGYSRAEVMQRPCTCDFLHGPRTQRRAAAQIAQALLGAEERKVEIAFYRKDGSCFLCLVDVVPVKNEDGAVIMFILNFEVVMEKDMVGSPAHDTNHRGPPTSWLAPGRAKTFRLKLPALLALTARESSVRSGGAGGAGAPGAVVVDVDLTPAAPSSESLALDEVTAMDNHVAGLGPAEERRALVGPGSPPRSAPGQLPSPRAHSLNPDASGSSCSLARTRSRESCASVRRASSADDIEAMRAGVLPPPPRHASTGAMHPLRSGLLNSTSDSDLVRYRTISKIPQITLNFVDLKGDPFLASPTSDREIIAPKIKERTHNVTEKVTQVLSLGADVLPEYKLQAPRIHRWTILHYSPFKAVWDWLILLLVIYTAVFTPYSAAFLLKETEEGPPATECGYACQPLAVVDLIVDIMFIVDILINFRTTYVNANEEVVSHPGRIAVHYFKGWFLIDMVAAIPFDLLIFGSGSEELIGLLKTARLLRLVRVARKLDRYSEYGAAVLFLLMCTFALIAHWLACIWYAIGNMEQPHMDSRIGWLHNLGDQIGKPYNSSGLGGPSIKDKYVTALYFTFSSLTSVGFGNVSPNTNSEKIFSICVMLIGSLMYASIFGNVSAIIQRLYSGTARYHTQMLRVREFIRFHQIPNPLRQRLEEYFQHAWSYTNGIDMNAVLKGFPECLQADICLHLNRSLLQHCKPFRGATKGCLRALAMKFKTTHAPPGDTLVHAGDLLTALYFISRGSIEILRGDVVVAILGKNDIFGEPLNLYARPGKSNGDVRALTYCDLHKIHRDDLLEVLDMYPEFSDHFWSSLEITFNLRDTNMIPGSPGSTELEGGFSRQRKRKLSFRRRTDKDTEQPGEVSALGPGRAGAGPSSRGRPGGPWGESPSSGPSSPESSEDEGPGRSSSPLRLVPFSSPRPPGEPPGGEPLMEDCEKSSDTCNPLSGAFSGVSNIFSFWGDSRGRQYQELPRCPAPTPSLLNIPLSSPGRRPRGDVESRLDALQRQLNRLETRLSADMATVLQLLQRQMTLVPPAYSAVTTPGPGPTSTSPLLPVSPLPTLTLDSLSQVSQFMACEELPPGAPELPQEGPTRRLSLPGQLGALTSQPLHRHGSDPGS

Dipeptidyl peptidase 8 = Dipeptidyl peptidase 8 (Homo sapiens, UniProt Q6V1X1); experiment: Inhibition of human recombinant DPP8 using H-Gly-Pro-AMC substrate after 10 mins by fluorescence assay
Sequence of Dipeptidyl peptidase 8 (Q6V1X1 whole entry): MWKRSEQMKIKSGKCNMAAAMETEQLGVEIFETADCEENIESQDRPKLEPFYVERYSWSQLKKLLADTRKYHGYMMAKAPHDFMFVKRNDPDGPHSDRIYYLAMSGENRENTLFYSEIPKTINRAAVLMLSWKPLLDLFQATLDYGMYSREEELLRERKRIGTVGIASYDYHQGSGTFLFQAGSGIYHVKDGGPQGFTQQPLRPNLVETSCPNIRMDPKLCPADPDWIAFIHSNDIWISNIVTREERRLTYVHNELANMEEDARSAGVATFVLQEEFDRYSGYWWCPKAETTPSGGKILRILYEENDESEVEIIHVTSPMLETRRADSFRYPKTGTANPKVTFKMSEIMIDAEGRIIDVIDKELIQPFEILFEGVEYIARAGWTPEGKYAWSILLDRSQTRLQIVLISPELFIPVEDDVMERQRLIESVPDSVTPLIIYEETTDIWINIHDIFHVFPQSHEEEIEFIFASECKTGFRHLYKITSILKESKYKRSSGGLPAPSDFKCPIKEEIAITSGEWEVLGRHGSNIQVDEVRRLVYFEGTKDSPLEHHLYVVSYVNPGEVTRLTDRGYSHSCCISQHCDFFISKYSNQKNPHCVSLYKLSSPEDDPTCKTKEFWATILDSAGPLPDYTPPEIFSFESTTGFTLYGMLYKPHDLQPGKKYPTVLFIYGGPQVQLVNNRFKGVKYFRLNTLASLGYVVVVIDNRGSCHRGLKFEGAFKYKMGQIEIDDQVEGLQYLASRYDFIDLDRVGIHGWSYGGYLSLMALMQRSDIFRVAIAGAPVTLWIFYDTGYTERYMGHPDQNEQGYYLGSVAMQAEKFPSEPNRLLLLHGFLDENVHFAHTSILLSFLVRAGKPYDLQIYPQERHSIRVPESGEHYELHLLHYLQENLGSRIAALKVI

[11] = AUC (0 to infinity) in male Sprague-Dawley rat at 5 mg/kg, iv; assay type: ADME, organism-based; design: dose 5 mg/kg, time infinity, route intravenous; conditions: in vivo
[12] = Elimination half life in male Sprague-Dawley rat at 5 mg/kg, iv; assay type: ADME, organism-based; conditions: in vivo, read-out: beta t1/2 (converted)
[13] = Plasma clearance in male Sprague-Dawley rat at 10 mg/kg, po; assay type: ADME, organism-based
[14] = Tmax in male Sprague-Dawley rat at 10 mg/kg, po; assay type: ADME, organism-based; conditions: in vivo
Mus musculus [15] = experiment: Anti-diabetic effect in ICR mouse assessed as plasma glucose lowering effect at 10 mg/kg, po treated 8 hrs before 2.5 g/kg, po glucose load measured after 8 hrs by Oral glucose tolerance test relative to control
[16] = Metabolic stability in rat liver microsome assessed as turnover after 84 mins; assay type: ADME; conditions: liver microsomes, read-out: Drug metabolism

| SMILES | inhibition (INH) (Mus musculus [2]) [%] | half-life [3] [h] | IC50 (Dipeptidyl peptidase 9) [µM] | IC50 (Dipeptidyl peptidase 8) [µM] | inhibition (INH) (Mus musculus [15]) [%] | other results |
| --- | --- | --- | --- | --- | --- | --- |
| N[C@@H](CC(=O)N1CCn2c(nnc2C(F)(F)F)C1)[C@H]1CCc2cc(F)c(F)cc21 | 57 | 5.88 | > 10 | > 10 | 24 | half-life [1]: 5.11 h; Cmax [4]: 1490 ng/mL; clearance [5]: 37 mL/min/kg; Cmax [6]: 466 ng/mL; bioavailability [7]: 61%; AUC(0-inf) [8]: 2850 ng·h/mL; Vd [9]: 14.2 L/kg; Vdss (Rattus norvegicus): 25.792 L/kg; IC50 [10]: > 20 µM; AUC(0-inf) [11]: 2270 ng·h/mL; half-life [12]: 4.39 h; CL/F [13]: 59.1 mL/min/kg; Tmax [14]: 0.55 h |
| N[C@@H](CC(=O)N1CC(=O)Nc2ccccc2C1)[C@H]1CCc2cc(F)c(F)cc21 | 34 | 1.4 | > 10 | > 10 | 35 | metabolised at 1.4 h [16]: 50%; IC50 [10]: > 20 µM |
| N[C@@H](CC(=O)N1CC(=O)Nc2cc(F)ccc2C1)[C@H]1CCc2cc(F)c(F)cc21 |  | 1.85 |  |  |  |  |
| N[C@@H](CC(=O)N1CC(=O)Nc2cc(F)c(F)cc2C1)[C@H]1CCc2cc(F)c(F)cc21 |  |  | > 10 | > 10 |  |  |
| CN1C(=O)CN(C(=O)C[C@H](N)[C@H]2CCc3cc(F)c(F)cc32)Cc2ccccc21 | 29 |  | > 10 | > 10 | 38 |  |
| CN1C(=O)CN(C(=O)C[C@H](N)[C@H]2CCc3cc(F)c(F)cc32)Cc2ccc(F)cc21 | 48 |  | > 10 | > 10 | 30 |  |
| N[C@@H](CC(=O)N1CCn2c(nnc2C(F)(F)F)C1)Cc1cc(F)c(F)cc1F [SITAGLIPTIN] | 40 |  |  |  | 24 |  |
